# Results from patent US9266867B2, “Piperidinyl monocarboxylic acids as S1P1 receptor agonists” (BIOPROJET, priority 2011, dated 2016).
# Structures can show the parent of a compound that is named as a salt.
# Target: EDG-1 (Homo sapiens, UniProt P21453)
# Assay: 35S-GTPγS binding assay, EDG1 (S1P1)
# Format: biochemical
# Design: expressed in transfected cells
# Settings: not given
# Description: a) 35S-GTPγS Binding Assay GTP-γ-^35S binding was performed using […]15 μg protein of cell membranes suspended in 50 mM tris-HCl pH 7.5 containing 10 mM MgCl2, 100 mM NaCl and 10 μM GDP. The radioligand was 0.025 nM [^35S] GTP-γ-S and non specific binding determined in the presence of 10 μM non-radioactive GTP-γ-S. […] The maximal stimulation elicited by S1P was taken as a reference to define full or partial agonism and calculate the intrinsic activity (i.a.) of compounds.
# Chain of EDG-1 (P21453 whole entry): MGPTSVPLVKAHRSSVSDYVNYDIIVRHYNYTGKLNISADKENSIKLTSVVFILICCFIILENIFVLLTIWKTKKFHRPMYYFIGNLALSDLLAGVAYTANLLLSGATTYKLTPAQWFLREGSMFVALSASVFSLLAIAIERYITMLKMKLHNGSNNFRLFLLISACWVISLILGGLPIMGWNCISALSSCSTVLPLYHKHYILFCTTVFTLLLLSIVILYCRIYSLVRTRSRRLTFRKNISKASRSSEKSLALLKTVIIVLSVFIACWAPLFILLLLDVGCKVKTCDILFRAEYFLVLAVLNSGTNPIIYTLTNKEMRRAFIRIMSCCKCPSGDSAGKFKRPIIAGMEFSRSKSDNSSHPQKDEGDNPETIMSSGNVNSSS
row,SMILES,EC50 [nM]
1,"CC(C)Cc1ccc(-c2nc(-c3ccc(CN4CCC(C(=O)O)(c5ccccc5)CC4)cc3)no2)cc1Cl [Example 23, 1-{4-[5-(3-Chloro-4-isobutylphenyl)-[1,2,4]-oxadiazol-3-yl]-benzyl}-4-phenylpiperidine-4-carboxylic acid tert-butyl amine salt]",< 10

# Same assay, conditions: Table 1b; read-out: EDG1 EC50
row,SMILES,EC50 [nM]
1,"COCC1(C(=O)O)CCN(Cc2ccc(-c3noc(-c4ccc(CC(C)C)c(Cl)c4)n3)cc2)CC1 [Example 16, 1-{4-[5-(3-Chloro-4-isobutylphenyl)-[1,2,4]-oxadiazol-3-yl]-benzyl}-4-methoxymethylpiperidine-4-carboxylic acid tert-butyl amine salt]",< 1
2,"C=CCC1(C(=O)O)CCN(Cc2ccc(-c3noc(-c4ccc(-c5ccccc5)c(Cl)c4)n3)cc2)CC1 [Example 17, 4-Allyl-1-{4-[5-(2-chlorobiphenyl-4-yl)-[1,2,4]-oxadiazol-3-yl]-benzyl}piperidine-4-carboxylic acid tert-butyl amine salt]",< 1
3,"CCCC1(C(=O)O)CCN(Cc2ccc(-c3noc(-c4ccc(-c5ccccc5)c(Cl)c4)n3)cc2)CC1 [Example 18, 1-{4-[5-(2-Chlorobiphenyl-4-yl)-[1,2,4]-oxadiazol-3-yl]-benzyl}-4-propylpiperidine-4-carboxylic acid tert-butyl amine salt]",< 1
4,"COCCOCC1(C(=O)O)CCN(Cc2ccc(-c3noc(-c4ccc(-c5ccccc5)c(Cl)c4)n3)cc2)CC1 [Example 19, 1-{4-[5-(2-Chlorobiphenyl-4-yl)-[1,2,4]-oxadiazol-3-yl]-benzyl}-4-(2-methoxyethoxymethyl)piperidine-4-carboxylic acid tert-butyl amine salt]",< 1
5,"O=C(O)C1(COCc2ccccc2)CCN(Cc2ccc(-c3noc(-c4ccc(-c5ccccc5)c(Cl)c4)n3)cc2)CC1 [Example 20, 4-Benzyloxymethyl-1-{4-[5-(2-chlorobiphenyl-4-yl)-[1,2,4]-oxadiazol-3-yl]-benzyl}piperidine-4-carboxylic acid tert-butyl amine salt]",< 1
6,"CC(C)Cc1ccc(-c2nc(-c3ccc(CN4CCC(COCc5ccccc5)(C(=O)O)CC4)cc3)no2)cc1Cl [Example 21, 4-Benzyloxymethyl-1-[4-{5-(3-chloro-4-isobutylphenyl)-[1,2,4]-oxadiazol-3-yl]-benzyl}piperidine-4-carboxylic acid tert-butyl amine salt]",< 1
7,"O=C(O)C1(CO)CCN(Cc2ccc(-c3noc(-c4ccc(-c5ccccc5)c(Cl)c4)n3)cc2)CC1 [Example 22, 1-{4-[5-(2-Chlorobiphenyl-4-yl)-[1,2,4]-oxadiazol-3-yl]-benzyl}-4-hydroxymethylpiperidine-4-carboxylic acid tert-butyl amine salt]",< 1
8,"CC(C)Cc1ccc(-c2nc(-c3ccc(CN4CCC(Cc5ccccc5)(C(=O)O)CC4)cc3)no2)cc1Cl [Example 24, 4-Benzyl-1-[4-{5-(3-chloro-4-isobutylphenyl)-[1,2,4]-oxadiazol-3-yl]benzyl}-piperidine-4-carboxylic acid tert-butyl amine salt]",< 10
9,"CC(C)Cc1ccc(-c2nc(-c3ccc(CN4CCC(Cc5ccc(F)cc5)(C(=O)O)CC4)cc3)no2)cc1Cl [Example 25, 1-{4-[5-(3-Chloro-4-isobutyl-phenyl)-[1,2,4]-oxadiazol-3-yl]-benzyl}-4-(4-fluoro-benzyl)-piperidine-4-carboxylic acid tert-butyl amine salt]",< 1
10,"CC(C)Cc1ccc(-c2nc(-c3ccc(CN4CCC(Cc5ccccc5F)(C(=O)O)CC4)cc3)no2)cc1Cl [Example 26, 1-{4-[5-(3-Chloro-4-isobutyl-phenyl)-[1,2,4]-oxadiazol-3-yl]-benzyl}-4-(2-fluoro-benzyl)-piperidine-4-carboxylic acid tert-butyl amine salt]",< 1
11,"COc1ccc(CC2(C(=O)O)CCN(Cc3ccc(-c4noc(-c5ccc(CC(C)C)c(Cl)c5)n4)cc3)CC2)cc1 [Example 27, 1-{4-[5-(3-Chloro-4-isobutyl-phenyl)-[1,2,4]-oxadiazol-3-yl]-benzyl}-4-(4-methoxy-benzyl)-piperidine-4-carboxylic acid tert-butyl amine salt]",< 1
12,"COc1ccccc1CC1(C(=O)O)CCN(Cc2ccc(-c3noc(-c4ccc(CC(C)C)c(Cl)c4)n3)cc2)CC1 [Example 28, 1-{4-[5-(3-Chloro-4-isobutyl-phenyl)-[1,2,4]-oxadiazol-3-yl]-benzyl}-4-(2-methoxy-benzyl)-piperidine-4-carboxylic acid tert-butyl amine salt]",< 1
13,"COCC1(C(=O)O)CCN(Cc2ccc(-c3noc(-c4ccc(-c5ccccc5)c(Cl)c4)n3)cc2)CC1 [Example 29, 1-{4-[5-(2-chlorobiphenyl-4-yl)-[1,2,4]-oxadiazol-3-yl]benzyl}-4-methoxymethylpiperidine-4-carboxylic acid tert-butyl amine salt]",< 1
14,"CCC1(C(=O)O)CCN(Cc2ccc(-c3noc(-c4ccc(-c5ccccc5)c(Cl)c4)n3)cc2)CC1 [Example 30, 1-{4-[5-(2-Chlorobiphenyl-4-yl)-[1,2,4]-oxadiazol-3-yl]-benzyl}-4-ethylpiperidine-4-carboxylic acid tert-butyl amine salt]",< 1
15,"CC(C)Cc1ccc(-c2nc(-c3ccc(CN4CCC(C)(C(=O)O)CC4)cc3)no2)cc1 [Example 31, 1-{4-[5-(4-Isobutyl-phenyl)-[1,2,4]-oxadiazol-3-yl]-benzyl}-4-methyl-piperidine-4-carboxylic acid tert-butyl amine salt]",< 10

# Second part, the compound after the results:
row,EC50 [nM],SMILES
1,< 1,"COCCCCC1(C(=O)O)CCN(Cc2ccc(-c3noc(-c4ccc(CC(C)C)c(Cl)c4)n3)cc2)CC1 [Example 32, 1-{4-[5-(3-Chloro-4-isobutylphenyl-[1,2,4]-oxadiazol-3-yl]benzyl}-4-(4-methoxybutyl)piperidine-4-carboxylic acid tert-butylamine salt]"
2,< 1,"COCCOCC1(C(=O)O)CCN(Cc2ccc(-c3noc(-c4ccc(CC(C)C)c(Cl)c4)n3)cc2)CC1 [Example 33, 1-{4-[5-(3-chloro-4-isobutylphenyl)-[1,2,4]-oxadiazol-3-yl]benzyl}-4-(2-methoxyethoxymethyl)piperidine-4-carboxylic acid potassium salt]"
3,< 1,"CC(C)Cc1ccc(-c2nc(-c3ccc(CN4CCC(CCOc5ccccc5)(C(=O)O)CC4)cc3)no2)cc1Cl [Example 34, 1-{4-[5-(3-Chloro-4-isobutyl-phenyl)-[1,2,4]-oxadiazol-3-yl]-benzyl}-4-(2-phenoxy-ethyl)-piperidine-4-carboxylic acid tert-butyl amine salt]"
4,< 1,"CC(C)Cc1ccc(-c2nc(-c3ccc(CN4CCC(Cc5c(F)cccc5F)(C(=O)O)CC4)cc3)no2)cc1Cl [Example 35, 1-{4-[5-(3-Chloro-4-isobutyl-phenyl)-[1,2,4]-oxadiazol-3-yl]-benzyl}-4-(2,6-difluoro-benzyl)-piperidine-4-carboxylic acid tert-butyl amine salt]"
5,< 10,"CC(C)Cc1ccc(-c2nc(-c3ccc(CN4CCC(CC(C)C)(C(=O)O)CC4)cc3)no2)cc1Cl [Example 36, 1-{4-[5-(3-Chloro-4-isobutyl-phenyl)-[1,2,4]-oxadiazol-3-yl]-benzyl}-4-isobutyl-piperidine-4-carboxylic acid tert-butyl amine salt]"
6,< 1,"CC(C)Cc1ccc(-c2nc(-c3ccc(CN4CCC(C(=O)O)(C(C)C)CC4)cc3)no2)cc1Cl [Example 37, 1-{4-[5-(3-Chloro-4-isobutyl-phenyl)-[1,2,4]-oxadiazol-3-yl]-benzyl}-4-isopropyl-piperidine-4-carboxylic acid tert-butyl amine salt]"
7,< 10,"CC(C)Cc1ccc(-c2nc(-c3ccc(CN4CCC(Cc5cccc(C(F)(F)F)c5)(C(=O)O)CC4)cc3)no2)cc1Cl [Example 38, 1-{4-[5-(3-Chloro-4-isobutyl-phenyl)-[1,2,4]-oxadiazol-3-yl]-benzyl}-4-(3-trifluoromethyl-benzyl)-piperidine-4-carboxylic acid tert-butyl amine salt]"
8,< 10,"CC(C)Cc1ccc(-c2nc(-c3ccc(CN4CCC(Cc5ccco5)(C(=O)O)CC4)cc3)no2)cc1Cl [Example 39, 1-{4-[5-(3-Chloro-4-isobutyl-phenyl)-[1,2,4]-oxadiazol-3-yl]-benzyl}-4-furan-2-ylmethyl-piperidine-4-carboxylic acid tert-butyl amine salt]"
9,< 1,"CC(C)Cc1ccc(-c2nc(-c3ccc(CN4CCC(Cc5ccccn5)(C(=O)O)CC4)cc3)no2)cc1Cl [Example 40, 1-{4-[5-(3-Chloro-4-isobutyl-phenyl)-[1,2,4]-oxadiazol-3-yl]-benzyl}-4-pyridin-2-ylmethyl-piperidine-4-carboxylic acid tert-butyl amine salt]"
10,< 1,"COc1ccccc1OCCC1(C(=O)O)CCN(Cc2ccc(-c3noc(-c4ccc(CC(C)C)c(Cl)c4)n3)cc2)CC1 [Example 41, 1-{4-[5-(3-Chloro-4-isobutyl-phenyl)-[1,2,4]-oxadiazol-3-yl]-benzyl}-4-[2-(2-methoxy-phenoxy)-ethyl]-piperidine-4-carboxylic acid tert-butyl amine salt]"
11,< 1,"CC(C)Cc1ccc(-c2nc(-c3ccc(CN4CCC(Cc5cccnc5)(C(=O)O)CC4)cc3)no2)cc1Cl [Example 42, 1-{4-[5-(3-Chloro-4-isobutyl-phenyl)-[1,2,4]-oxadiazol-3-yl]-benzyl}-4-pyridin-3-ylmethyl-piperidine-4-carboxylic acid tert-butyl amine salt]"
12,< 1,"CC(C)Cc1ccc(-c2nc(-c3ccc(CN4CCC(Cc5ccncc5)(C(=O)O)CC4)cc3)no2)cc1Cl [Example 43, 1-{4-[5-(3-Chloro-4-isobutyl-phenyl)-[1,2,4]-oxadiazol-3-yl]-benzyl}-4-pyridin-4-ylmethyl-piperidine-4-carboxylic acid tert-butyl amine salt]"
